Measured values published in patent US12187723B2 (BRISTOL-MYERS SQUIBB COMPANY, priority 2019, dated 2025).
pIC50: −log10 of the molar value.

Legend:
[1] = molecular target: T1, human TLR7 (Homo sapiens, UniProt Q9NYK1); assay: TLR7 inhibition reporter assay (HEK-Blue SEAP); format: cell-based; details: HEK-Blue cells overexpressing human TLR7, gardiquimod 7.5 μM, 22 hour incubation
T1 construct: host or cells: HEK-Blue cells
T1 sequence (Q9NYK1 27-1049): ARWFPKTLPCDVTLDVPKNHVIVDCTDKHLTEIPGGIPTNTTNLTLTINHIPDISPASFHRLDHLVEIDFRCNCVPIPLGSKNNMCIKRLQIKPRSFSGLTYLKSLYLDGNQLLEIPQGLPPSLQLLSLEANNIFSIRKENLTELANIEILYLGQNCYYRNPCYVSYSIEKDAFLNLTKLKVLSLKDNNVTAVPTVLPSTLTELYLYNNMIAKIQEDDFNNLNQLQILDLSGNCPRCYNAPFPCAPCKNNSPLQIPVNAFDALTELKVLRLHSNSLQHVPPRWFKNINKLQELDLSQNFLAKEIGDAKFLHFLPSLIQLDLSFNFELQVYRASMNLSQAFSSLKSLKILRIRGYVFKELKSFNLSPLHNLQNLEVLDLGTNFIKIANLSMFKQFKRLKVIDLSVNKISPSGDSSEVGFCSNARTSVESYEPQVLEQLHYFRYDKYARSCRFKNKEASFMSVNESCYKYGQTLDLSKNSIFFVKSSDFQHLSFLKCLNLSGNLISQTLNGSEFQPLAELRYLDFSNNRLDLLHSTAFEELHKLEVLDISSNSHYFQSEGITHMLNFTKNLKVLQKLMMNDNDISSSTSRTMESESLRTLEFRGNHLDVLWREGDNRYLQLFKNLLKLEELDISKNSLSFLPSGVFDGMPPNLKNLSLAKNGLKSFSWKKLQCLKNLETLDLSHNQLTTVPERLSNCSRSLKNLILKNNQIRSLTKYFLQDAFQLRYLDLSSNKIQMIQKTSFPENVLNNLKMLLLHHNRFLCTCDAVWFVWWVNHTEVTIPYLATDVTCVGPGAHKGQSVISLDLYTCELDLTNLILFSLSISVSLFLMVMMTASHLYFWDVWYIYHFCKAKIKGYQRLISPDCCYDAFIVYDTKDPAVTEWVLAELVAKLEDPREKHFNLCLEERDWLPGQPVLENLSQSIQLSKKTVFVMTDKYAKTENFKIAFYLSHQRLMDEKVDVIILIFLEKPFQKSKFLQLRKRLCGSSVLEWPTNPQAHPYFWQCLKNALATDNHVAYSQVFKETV
In short: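 In this cell reporter format, test compounds at 0.05 nM-50 μM final incubate 22 h with seeded cells (TLR7 15000, TLR8 20,000 per well). SEAP read-out by HEK-Blue Detection medium yields % inhibition relative to agonist/DMSO and known-inhibitor wells.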

[2] = molecular target: T2, human TLR9 (Homo sapiens, UniProt Q9NR96); assay: TLR9 inhibition reporter assay (HEK-Blue SEAP); format: cell-based; details: HEK-Blue cells overexpressing human TLR9, ODN2006 5 nM, 22 hour incubation
T2 construct: host or cells: HEK-Blue cells
T2 sequence (Q9NR96 26-1032): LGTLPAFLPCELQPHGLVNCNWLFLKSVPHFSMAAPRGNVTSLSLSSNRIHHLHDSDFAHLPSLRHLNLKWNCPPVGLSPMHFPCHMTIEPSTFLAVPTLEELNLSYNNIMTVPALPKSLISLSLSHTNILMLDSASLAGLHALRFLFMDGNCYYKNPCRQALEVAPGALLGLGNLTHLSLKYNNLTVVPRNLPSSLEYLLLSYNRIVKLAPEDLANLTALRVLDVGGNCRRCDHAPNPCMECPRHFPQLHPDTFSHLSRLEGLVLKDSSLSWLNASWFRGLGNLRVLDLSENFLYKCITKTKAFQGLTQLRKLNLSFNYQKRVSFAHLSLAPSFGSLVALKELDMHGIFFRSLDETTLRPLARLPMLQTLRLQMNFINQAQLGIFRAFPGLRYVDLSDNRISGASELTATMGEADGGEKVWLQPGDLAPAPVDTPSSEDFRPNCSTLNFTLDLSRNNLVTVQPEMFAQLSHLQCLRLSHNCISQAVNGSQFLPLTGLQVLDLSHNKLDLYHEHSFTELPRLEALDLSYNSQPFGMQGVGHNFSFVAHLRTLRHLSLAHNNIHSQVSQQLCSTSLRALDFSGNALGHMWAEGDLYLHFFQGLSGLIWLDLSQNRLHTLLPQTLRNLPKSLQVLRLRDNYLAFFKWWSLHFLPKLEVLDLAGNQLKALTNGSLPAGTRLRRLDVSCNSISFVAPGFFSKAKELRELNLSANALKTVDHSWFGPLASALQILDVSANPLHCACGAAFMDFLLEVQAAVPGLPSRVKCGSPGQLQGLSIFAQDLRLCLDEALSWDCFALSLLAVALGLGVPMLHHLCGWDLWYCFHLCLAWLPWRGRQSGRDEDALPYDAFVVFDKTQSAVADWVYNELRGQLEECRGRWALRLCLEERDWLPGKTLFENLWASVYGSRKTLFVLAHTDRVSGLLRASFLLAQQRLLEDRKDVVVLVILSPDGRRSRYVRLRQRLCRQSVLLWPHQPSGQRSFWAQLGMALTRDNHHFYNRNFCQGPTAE
In short: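 Dose–response from 0.05 nM to 50 μM was run in HEK-Blue human TLR7, TLR8 and TLR9 reporter cells. After 30 min at room temperature with compound, ligand was added (TLR7 gardiquimod 7.5 μM; TLR8 R848 15.9 μM; TLR9 ODN2006 5 nM) and SEAP measured next day, at 22 h.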

pIC50 [1] | pIC50 [2] | Compound
7.79 | 5.38 | COc1cc(-c2cc3[nH]c(=O)n([C@H]4CC[C@@H](NC5CCC5)CC4)c3cc2C)cn2ncnc12 [Example 58, 1-((1s,4s)-4-(cyclobutylamino)cyclohexyl)-5-(8-methoxy-[1,2,4]triazolo[1,5-a]pyridin-6-yl)-6-methyl-1,3-dihydro-2H-benzo[d]imidazol-2-one]
7.98 | 5.46 | COc1cc(-c2cc3[nH]c(=O)n([C@H]4CC[C@@H](NC5CCCC5)CC4)c3cc2C)cn2ncnc12 [Example 65, 1-((1s,4s)-4-(cyclopentylamino)cyclohexyl)-5-(8-methoxy-[1,2,4]triazolo[1,5-a]pyridin-6-yl)-6-methyl-1,3-dihydro-2H-benzo[d]imidazol-2-one]
7.48 | 5.02 | CCC(CC)N1CCC[C@@H](n2c(=O)[nH]c3cc(-c4cc(OC)c5ncnn5c4)c(C)cc32)C1 [Example 67, (R)-5-(8-methoxy-[1,2,4]triazolo[1,5-a]pyridin-6-yl)-6-methyl-1-(1-(pentan-3-yl)piperidin-3-yl)-1,3-dihydro-2H-benzo[d]imidazol-2-one]
6.38 | 4.57 | COc1cc(-c2cc3[nH]c(=O)n([C@@H]4CCCN(CCC(F)(F)F)C4)c3cc2C)cn2ncnc12 [Example 68, (R)-5-(8-methoxy-[1,2,4]triazolo[1,5-a]pyridin-6-yl)-6-methyl-1-(1-(3,3,3-trifluoropropyl)piperidin-3-yl)-1,3-dihydro-2H-benzo[d]imidazol-2-one]
7.01 | 4.72 | COc1cc(-c2cc3[nH]c(=O)n([C@@H]4CCCN(C5CCC5)C4)c3cc2C)cn2ncnc12 [Example 69, (R)-1-(1-cyclobutylpiperidin-3-yl)-5-(8-methoxy-[1,2,4]triazolo[1,5-a]pyridin-6-yl)-6-methyl-1,3-dihydro-2H-benzo[d]imidazol-2-one]
6.79 | 4.75 | COc1cc(-c2cc3[nH]c(=O)n([C@@H]4CCCN(C5CCOCC5)C4)c3cc2C)cn2ncnc12 [Example 70, (R)-5-(8-methoxy-[1,2,4]triazolo[1,5-a]pyridin-6-yl)-6-methyl-1-(1-(tetrahydro-2H-pyran-4-yl)piperidin-3-yl)-1,3-dihydro-2H-benzo[d]imidazol-2-one]
7.65 | 4.54 | COc1cc(-c2cc3[nH]c(=O)n([C@@H]4CCCN(CC(C)(C)C)C4)c3cc2C)cn2ncnc12 [Example 71, (R)-5-(8-methoxy-[1,2,4]triazolo[1,5-a]pyridin-6-yl)-6-methyl-1-(1-neopentylpiperidin-3-yl)-1,3-dihydro-2H-benzo[d]imidazol-2-one]
6.17 | 4.34 | COc1cc(-c2cc3[nH]c(=O)n([C@@H]4CCCN(C5COC5)C4)c3cc2C)cn2ncnc12 [Example 72, (R)-5-(8-methoxy-[1,2,4]triazolo[1,5-a]pyridin-6-yl)-6-methyl-1-(1-(oxetan-3-yl)piperidin-3-yl)-1,3-dihydro-2H-benzo[d]imidazol-2-one]

The next lines start with the compound.

Compound | pIC50 [1] | pIC50 [2]
COc1cc(-c2cc3[nH]c(=O)n([C@H]4CC[C@@H](NC5COC5)CC4)c3cc2C)cn2ncnc12 [Example 59, 5-(8-methoxy-[1,2,4]triazolo[1,5-a]pyridin-6-yl)-6-methyl-1-((1s,4s)-4-(oxetan-3-ylamino)cyclohexyl)-1,3-dihydro-2H-benzo[d]imidazol-2-one] | 7.17 | 5.12
COc1cc(-c2cc3[nH]c(=O)n([C@H]4CC[C@@H](NCC5CC5)CC4)c3cc2C)cn2ncnc12 [Example 60, 1-((1s,4s)-4-((cyclopropylmethyl)amino)cyclohexyl)-5-(8-methoxy-[1,2,4]triazolo[1,5-a]pyridin-6-yl)-6-methyl-1,3-dihydro-2H-benzo[d]imidazol-2-one] | 7.56 | 5.18
COc1cc(-c2cc3[nH]c(=O)n([C@H]4CC[C@@H](NCC(C)C)CC4)c3cc2C)cn2ncnc12 [Example 61, 1-((1s,4s)-4-(isobutylamino)cyclohexyl)-5-(8-methoxy-[1,2,4]triazolo[1,5-a]pyridin-6-yl)-6-methyl-1,3-dihydro-2H-benzo[d]imidazol-2-one] | 7.69 | 5.26
COc1cc(-c2cc3[nH]c(=O)n([C@H]4CC[C@@H](NC5CCCCC5)CC4)c3cc2C)cn2ncnc12 [Example 62, 1-((1s,4s)-4-(cyclohexylamino)cyclohexyl)-5-(8-methoxy-[1,2,4]triazolo[1,5-a]pyridin-6-yl)-6-methyl-1,3-dihydro-2H-benzo[d]imidazol-2-one] | 7.92 | 5.63
CCN[C@H]1CC[C@@H](n2c(=O)[nH]c3cc(-c4cc(OC)c5ncnn5c4)c(C)cc32)CC1 [Example 63, 1-((1s,4s)-4-(ethylamino)cyclohexyl)-5-(8-methoxy-[1,2,4]triazolo[1,5-a]pyridin-6-yl)-6-methyl-1,3-dihydro-2H-benzo[d]imidazol-2-one] | 7.35 | 5.00
CCCN[C@H]1CC[C@@H](n2c(=O)[nH]c3cc(-c4cc(OC)c5ncnn5c4)c(C)cc32)CC1 [Example 64, 5-(8-methoxy-[1,2,4]triazolo[1,5-a]pyridin-6-yl)-6-methyl-1-((1s,4s)-4-(propylamino)cyclohexyl)-1,3-dihydro-2H-benzo[d]imidazol-2-one] | 8.17 | 5.26
COc1cc(-c2cc3[nH]c(=O)n([C@H]4CC[C@@H](NCC5CCCCC5)CC4)c3cc2C)cn2ncnc12 [Example 66, 1-((1s,4s)-4-((cyclohexylmethyl)amino)cyclohexyl)-5-(8-methoxy-[1,2,4]triazolo[1,5-a]pyridin-6-yl)-6-methyl-1,3-dihydro-2H-benzo[d]imidazol-2-one] | 7.68 | 5.69
CCC(CC)CN1CCC[C@@H](n2c(=O)[nH]c3cc(-c4cc(OC)c5ncnn5c4)c(C)cc32)C1 [Example 73, (R)-1-(1-(2-ethylbutyl)piperidin-3-yl)-5-(8-methoxy-[1,2,4]triazolo[1,5-a]pyridin-6-yl)-6-methyl-1,3-dihydro-2H-benzo[d]imidazol-2-one] | 7.49 | 5.09
COc1cc(-c2ccc3c(c2)[nH]c(=O)n3C2CCN(C)CC2)cn2ncnc12 [Example 74, 5-(8-methoxy-[1,2,4]triazolo[1,5-a]pyridin-6-yl)-1-(1-methylpiperidin-4-yl)-1,3-dihydro-2H-benzo[d]imidazol-2-one] | 6.02 | 6.44
